Data from ChEMBL document CHEMBL4513149, “CO-ADD screening of MMV (CH) - MMV compounds” (2021).
Converted amounts (≈) assume the structure as drawn. Counter-ions that a name gives are not always drawn.

Legend:
HEK293 = assay: cells; format: functional; conditions: Homo sapiens, ATCC CRL1573, HEK293; ASSAY_TEST Inhibition of Cell Viability; detection method Resazurin; Fluorescence (ex560/em590); MEDIA DMEM with 10% FBS; plate type 384well; TC; CORNING #3712; time 18 hr
Staphylococcus aureus = assay: microbe, parasite or virus in culture; conditions: ATCC 43300, 18 h, ASSAY_TEST Inhibition of Bacterial Growth, detection method Absorption (OD600), MEDIA CAMHB, plate type 384well, NBS, CORNING #3640
Description: Antibacterial activity against Staphylococcus aureus MRSA ATCC 43300 (CO-ADD:GP_020); MIC in CAMBH media, using NBS plates, by OD(600)

Escherichia coli = assay: microbe, parasite or virus in culture; conditions: ATCC 25922, 18 h, ASSAY_TEST Inhibition of Bacterial Growth, detection method Absorption (OD600), MEDIA CAMHB, plate type 384well, NBS, CORNING #3640
Description: Antibacterial activity against Escherichia coli ATCC 25922 (CO-ADD:GN_001); MIC in CAMBH media using NBS plates, by OD(600)

Klebsiella pneumoniae = assay: microbe, parasite or virus in culture; conditions: ATCC 700603, 18 h, ASSAY_TEST Inhibition of Bacterial Growth, detection method Absorption (OD600), MEDIA CAMHB, plate type 384well, NBS, CORNING #3640
Description: Antibacterial activity against Klebsiella pneumoniae MDR ATCC 70063 (CO-ADD:GN_003); MIC in CAMBH media using NBS plates, by OD(600)

Pseudomonas aeruginosa = assay: microbe, parasite or virus in culture; conditions: ATCC 27853, 18 h, ASSAY_TEST Inhibition of Bacterial Growth, detection method Absorption (OD600), MEDIA CAMHB, plate type 384well, NBS, CORNING #3640
Description: Antibacterial activity against Pseudomonas aeruginosa ATCC 27853 (CO-ADD:GN_042); MIC in CAMBH media using NBS plates, by OD(600)

Acinetobacter baumannii = assay: microbe, parasite or virus in culture; conditions: ATCC 19606, 18 h, ASSAY_TEST Inhibition of Bacterial Growth, detection method Absorption (OD600), MEDIA CAMHB, plate type 384well, NBS, CORNING #3640
Description: Antibacterial activity against Acinetobacter baumannii ATCC 19606 (CO-ADD:GN_034); MIC in CAMBH media using NBS plates, by OD600

Candida albicans = assay: microbe, parasite or virus in culture; conditions: ATCC 90028, ASSAY_TEST Inhibition of Fungal Growth, detection method Absorption (OD530), plate type 384well, NBS, CORNING #3640
Description: Antifungal activity against Candida albicans ATCC 90028 (CO-ADD:FG_001); MIC in YNB media using NBS plates, by OD630

Description for Cryptococcus neoformans: Antifungal activity against Cryptococcus neoformans H99 ATCC 208821 (CO-ADD:FG_002); MIC in YNB media using NBS plates, by Resazurin OD(600-570)

| Structure (SMILES) | CC50 (HEK293) | MIC (Cryptococcus neoformans) | MIC (Staphylococcus aureus) | MIC (Escherichia coli) | MIC (Klebsiella pneumoniae) | MIC (Pseudomonas aeruginosa) | MIC (Acinetobacter baumannii) | MIC (Candida albicans) |
| --- | --- | --- | --- | --- | --- | --- | --- | --- |
| O=C(Nc1nnc(-c2ccc(Cl)cc2)o1)c1cccc(C(F)(F)F)c1 | > 10 µM | > 10 µM | > 10 µM | > 10 µM | > 10 µM | > 10 µM | > 10 µM | > 10 µM |
| C[C@H]1c2cccc(O)c2C(=O)C2=C(O)[C@]3(O)C(=O)C(C(N)=O)=C(O)[C@@H](N(C)C)[C@@H]3[C@@H](O)[C@@H]21 [DOXYCYCLINE HYDROCHLORIDE] | > 10 µM | > 10 µM | 0.156 µM | 1.25 µM | > 10 µM | 0.156 µM | > 10 µM | > 10 µM |
| O=C(Nc1cccnc1)c1c(O)c2cccc3c2n(c1=O)CC3 | > 10 µM | > 10 µM | > 10 µM | > 10 µM | > 10 µM | > 10 µM | > 10 µM | > 10 µM |
| CC(=O)NCC1CN(c2ccc(-c3ccc(CO)cc3)c(F)c2)C(=O)O1 (stereo unspecified) | > 10 µM | > 10 µM | 1.25 µM (≈ 0.448 µg/mL) | > 10 µM | > 10 µM | > 10 µM | > 10 µM | > 10 µM |
| CCN(CC)S(=O)(=O)c1ccc(C(=O)Nc2cc(C)nn2-c2nc(C)c(C)c(=O)[nH]2)cc1 | > 10 µM | > 10 µM | > 10 µM | > 10 µM | > 10 µM | > 10 µM | > 10 µM | > 10 µM |
| Cc1cc(NC(=O)c2ccc(Oc3ccc(Cl)cc3O)o2)no1 | > 10 µM | > 10 µM | > 10 µM | > 10 µM | > 10 µM | > 10 µM | > 10 µM | > 10 µM |
| CC(=O)NC[C@@H]1CN(c2ccc(N3CCOCC3)c(F)c2)C(=O)O1 | > 10 µM | > 10 µM | 2.5 µM (≈ 0.843 µg/mL) | > 10 µM | > 10 µM | > 10 µM | > 10 µM | > 10 µM |
| CC[C@@H]([C@H](C)O)n1ncn(-c2ccc(N3CCN(c4ccc(OC[C@@H]5CO[C@@](Cn6cncn6)(c6ccc(F)cc6F)C5)cc4)CC3)cc2)c1=O [POSACONAZOLE] | > 10 µM | 1.25 µM (≈ 0.876 µg/mL) | > 10 µM | > 10 µM | > 10 µM | > 10 µM | > 10 µM | 0.156 µM (≈ 0.11 µg/mL) |
| CC(C)(C)[C@H]1CC[C@H](CC2=C(O)C(=O)c3ccccc3C2=O)CC1 [BUPARVAQUONE] | > 10 µM | > 10 µM | > 10 µM | > 10 µM | > 10 µM | > 10 µM | > 10 µM | > 10 µM |
| NC(CC(=O)c1ccc(Cl)cc1Cl)C(Cl)(Cl)Cl (stereo unspecified) | > 10 µM | > 10 µM | > 10 µM | > 10 µM | > 10 µM | > 10 µM | > 10 µM | > 10 µM |
| O=C(c1ccco1)N(CCCn1ccnc1)c1nc2c(Cl)cccc2s1 | > 10 µM | > 10 µM | > 10 µM | > 10 µM | > 10 µM | > 10 µM | > 10 µM | > 10 µM |
| CCc1c(C)nc(-n2nc(C)cc2NC(=O)c2ccccc2SC)[nH]c1=O | > 10 µM | > 10 µM | > 10 µM | > 10 µM | > 10 µM | > 10 µM | > 10 µM | > 10 µM |
| O=C1O[C@@H](CO)CN1c1cc(F)c(C2=CCN(Cc3ccccc3)CC2)c(F)c1 | > 10 µM | > 10 µM | > 10 µM | > 10 µM | > 10 µM | > 10 µM | > 10 µM | > 10 µM |
| Cc1nc(-c2ccccn2)nc(N2CCC(Cc3ccccc3)C2)c1Cl (stereo unspecified) | > 10 µM | ≤ 0.0781 µM | > 10 µM | > 10 µM | > 10 µM | > 10 µM | > 10 µM | 0.156 µM (≈ 0.057 µg/mL) |
| c1cncc(NCc2ccc(-c3cc4ccncc4cc3OC3CCNCC3)s2)c1 | > 10 µM | > 10 µM | > 10 µM | > 10 µM | > 10 µM | > 10 µM | > 10 µM | > 10 µM |
| Cc1cc(NCCc2ccccc2)nc(NC(=N)Nc2ccc(Cl)cc2)n1 | > 10 µM | > 10 µM | > 10 µM | > 10 µM | > 10 µM | > 10 µM | > 10 µM | > 10 µM |

| Structure (SMILES) | CC50 (HEK293) | MIC (Cryptococcus neoformans) | MIC (Staphylococcus aureus) | MIC (Escherichia coli) | MIC (Klebsiella pneumoniae) | MIC (Pseudomonas aeruginosa) | MIC (Acinetobacter baumannii) | MIC (Candida albicans) |
| --- | --- | --- | --- | --- | --- | --- | --- | --- |
| c1ccc(-c2nc(NC3CCCCC3)cc(C3CC3)n2)nc1 | > 10 µM | > 10 µM | 10 µM (≈ 2.94 µg/mL) | > 10 µM | > 10 µM | > 10 µM | > 10 µM | > 10 µM |
| Cc1nn2c(=O)c3c([nH]c2c1-c1ccc(Cl)cc1)CCCC3 | > 10 µM | > 10 µM | > 10 µM | > 10 µM | > 10 µM | > 10 µM | > 10 µM | > 10 µM |
| O=C(Nc1ccc(C(F)(F)F)c(C(F)(F)F)c1)c1cc(Cl)ccc1O | > 10 µM | > 10 µM | > 10 µM | > 10 µM | > 10 µM | > 10 µM | > 10 µM | > 10 µM |
| O=C(Nc1ccccc1)c1ccc(-c2cc3ccncc3cc2OC2CCNCC2)s1 | > 10 µM | > 10 µM | > 10 µM | > 10 µM | > 10 µM | > 10 µM | > 10 µM | > 10 µM |
| O=C(Nc1nnc(-c2ccc(Cl)s2)o1)c1ccc(Cl)s1 | > 10 µM | > 10 µM | 10 µM (≈ 3.46 µg/mL) | > 10 µM | > 10 µM | > 10 µM | > 10 µM | > 10 µM |
| c1csc(-c2cnc3sc(NCC4CCOCC4)nn23)c1 | > 10 µM | > 10 µM | > 10 µM | > 10 µM | > 10 µM | > 10 µM | > 10 µM | > 10 µM |
| COc1cccc(-c2nc3c(N4CCCC4)cccc3n2CC2CCCN2)n1 (stereo unspecified) | > 10 µM | > 10 µM | 10 µM (≈ 3.77 µg/mL) | > 10 µM | > 10 µM | > 10 µM | > 10 µM | > 10 µM |
| Nc1ccc2ncnc(Nc3ccc(OCc4cccc(F)c4)c(Cl)c3)c2c1 | > 10 µM | > 10 µM | > 10 µM | > 10 µM | > 10 µM | > 10 µM | > 10 µM | > 10 µM |
| CCCn1c(NC(=O)c2ccc3ccccc3n2)nc2ccccc21 | > 10 µM | > 10 µM | > 10 µM | > 10 µM | > 10 µM | > 10 µM | > 10 µM | > 10 µM |
| CC(=O)NC[C@H]1CN(c2ccc(N3CCSCC3)c(F)c2)C(=O)O1 [SUTEZOLID] | > 10 µM | > 10 µM | 5 µM (≈ 1.77 µg/mL) | > 10 µM | > 10 µM | > 10 µM | > 10 µM | > 10 µM |
| CCc1nn(C)c(C(=O)NCc2ccc(Oc3ccc(C)cc3)cc2)c1Cl [TOLFENPYRAD] | > 10 µM | 10 µM (≈ 3.84 µg/mL) | > 10 µM | > 10 µM | > 10 µM | > 10 µM | > 10 µM | > 10 µM |
| CO[C@H]1/C=C/O[C@@]2(C)Oc3c(C)c(O)c4c(O)c(/c(=C/NN5CCN(C)CC5)c(O)c4c3C2=O)=N\C(=O)/C(C)=C\C=C/[C@H](C)[C@H](O)[C@@H](C)[C@@H](O)[C@@H](C)[C@H](OC(C)=O)[C@@H]1C | > 10 µM | > 10 µM | ≤ 0.0781 µM | 10 µM (≈ 8.23 µg/mL) | > 10 µM | 5 µM (≈ 4.11 µg/mL) | > 10 µM | > 10 µM |
| Cn1c(=O)c2c(S(C)(=O)=O)snc2n(C)c1=O | 9.72 µM | > 10 µM | > 10 µM | > 10 µM | > 10 µM | > 10 µM | > 10 µM | > 10 µM |
| CC(=O)N1CCN(c2ccc(Oc3ccc(Cl)cc3O)cc2)CC1 | > 10 µM | > 10 µM | > 10 µM | > 10 µM | > 10 µM | > 10 µM | > 10 µM | > 10 µM |
| NCCN(C(=O)c1ccc(Cl)cc1Cl)c1ccc(OCc2ccc(Cl)cc2)cc1 | > 10 µM | > 10 µM | 10 µM (≈ 4.5 µg/mL) | > 10 µM | > 10 µM | > 10 µM | > 10 µM | > 10 µM |
| Nc1nc2cc(-c3cncc(Oc4ccc(F)cc4)c3)ccc2[nH]1 | > 10 µM | > 10 µM | > 10 µM | > 10 µM | > 10 µM | > 10 µM | > 10 µM | > 10 µM |
